Source: ChEMBL document CHEMBL2401646 (Bioorg Med Chem Lett, 2013)
Values after ≈ are worked out from the molar mass of the structure shown.

Tests used:
[1] = target: T1, Hepatocyte growth factor receptor (Homo sapiens, UniProt P08581); experiment: Inhibition of cMET (unknown origin) using biotinylated poly(Glu,Tyr) as substrate after 60 mins
SNU-5 [2] = experiment: Antitumor activity against human SNU5 cells xenografted in nu/nu CD1 mouse model assessed as tumor growth inhibition at 200 mg/kg, po qd for 20 days; conditions: SNU-5, po, 480 h, read-out: TGI
Mus musculus [3] = experiment: Inhibition of MET autophosphorylation at Y1234/1235 in human MKN45 cells xenografted in mouse at 100 mg/kg, po up to 8 hrs; format: functional; conditions: MKN-45, 8 h
SNU-5 [4] = experiment: Antitumor activity against human SNU5 cells xenografted in nu/nu CD1 mouse model assessed as maximum tumor regression at 200 mg/kg, po qd for 20 days
[5] = AUC (0 to last) in Sprague-Dawley rat at 20 mg/kg, po; format: ADME, organism-based; set-up: time 0 - last, dose 20 mg/kg, route oral; conditions: plasma
[6] = Protein binding in human plasma by equilibrium dialysis; format: ADME, cell-free; conditions: read-out: PPB (converted)
Aurora kinase B [7] = target: T2, Aurora kinase B (Homo sapiens, UniProt Q96GD4); experiment: Inhibition of aurora-B (unknown origin) autophosphorylation
[8] = target: T3, Vascular endothelial growth factor receptor 2 (Homo sapiens, UniProt P35968); experiment: Inhibition of KDR autophosphorylation in HUVEC
[9] = Oral bioavailability in Sprague-Dawley rat at 20 mg/kg; format: ADME, organism-based; conditions: in vivo
[10] = target: T1, Hepatocyte growth factor receptor; experiment: Inhibition of cMET in human MKN45 cells assessed as phosphorylated MET levels after 4 hrs in presence of mouse plasma; format: cell-based, MKN-45
[11] = Solubility of the compound at pH 4.5; format: physicochemical; conditions: buffer
[12] = Cmax in Sprague-Dawley rat at 20 mg/kg, po; format: ADME, organism-based; set-up: dose 20 mg/kg, route oral; conditions: in vivo
[13] = target: Hepatocyte growth factor receptor (Homo sapiens, UniProt P08581, Y1230H); experiment: Inhibition of cMET Y1230H mutant (unknown origin) autophosphorylation
[14] = Solubility of the compound at around physiological pH; format: physicochemical
[15] = Volume of distribution at steady state in Sprague-Dawley rat at 2 mg/kg, iv; format: ADME, organism-based; set-up: dose 2 mg/kg, route intravenous; conditions: in vivo, read-out: Vdss
Mus musculus [16] = experiment: Toxicity in human SNU5 cells xenografted nu/nu CD1 mouse model assessed as body weigh loss at 50 mg/kg, po qd for 20 days; conditions: in vivo, 480 h
Salmonella typhimurium = experiment: Mutagenic activity in Salmonella typhimurium TA100 by Ames test in presence of liver S9 fraction; format: toxicity, organism-based; conditions: salmonella enterica subsp. enterica serovar typhimurium
Mus musculus [17] = experiment: Toxicity in human SNU5 cells xenografted nu/nu CD1 mouse model assessed as body weigh loss at 200 mg/kg, po qd for 20 days; conditions: in vivo, 480 h
[18] = Antitumor activity against human U87MG cells xenografted in nu/nu CD1 mouse model assessed as tumor growth inhibition at 50 mg/kg, po bid for 14 days; format: functional, U-87MG ATCC; conditions: U-87 MG, 336 h, read-out: TGI
Mus musculus [19] = experiment: Toxicity in human SNU5 cells xenografted nu/nu CD1 mouse model assessed as body weigh loss at 100 mg/kg, po qd for 20 days; conditions: in vivo, 480 h
MKN-45 [20] = experiment: Antiproliferative activity against human MKN45 cells after 3 days by CellTiter-Glo assay; format: functional, cell-based; conditions: MKN-45, 72 h
[21] = Half life in CD1 mouse at 2 mg/kg, iv; format: ADME, organism-based; set-up: dose 2 mg/kg, route intravenous; conditions: in vivo
SNU-5 [22] = experiment: Antitumor activity against human SNU5 cells xenografted in nu/nu CD1 mouse model assessed as maximum tumor regression at 50 mg/kg, po qd for 20 days
[23] = Antitumor activity against human U87MG cells xenografted in nu/nu CD1 mouse model assessed as tumor growth inhibition at 200 mg/kg, po qd for 14 days; format: functional, U-87MG ATCC; conditions: U-87 MG, 336 h, read-out: TGI
Mus musculus [24] = experiment: Toxicity in human U87MG cells xenografted nu/nu CD1 mouse model assessed as body weigh loss at 100 mg/kg, po bid for 14 days; format: organism-based, U-87MG ATCC; set-up: dose 100 mg/kg, route oral; conditions: in vivo, 336 h
[25] = Metabolic stability in human liver microsomes assessed as extraction ratio up to 40 mins by LC-MS/MS analysis; format: ADME, Microsome; conditions: read-out: ERH
MKN-45 [26] = experiment: Antitumor activity against human MKN45 cells xenografted in po dosed nu/nu CD1 mouse model assessed as tumor growth inhibition administered qd for 14 days; format: functional; conditions: MKN-45, po, 336 h
[27] = target: Hepatocyte growth factor receptor (Homo sapiens, UniProt P08581, Y1230C); experiment: Inhibition of cMET Y1230C mutant (unknown origin) autophosphorylation
[28] = target: T3, Vascular endothelial growth factor receptor 2; experiment: Inhibition of KDR (unknown origin) autophosphorylation
[29] = Plasma concentration in human MKN45 cells xenografted in mouse at 100 mg/kg, po after 16 hrs; format: ADME, organism-based, MKN-45; set-up: dose 100 mg/kg, route oral
[30] = Antitumor activity against human U87MG cells xenografted in nu/nu CD1 mouse model assessed as maximum tumor regression at 100 mg/kg, po bid for 14 days; format: functional, U-87MG ATCC
[31] = Plasma concentration in human MKN45 cells xenografted in mouse at 100 mg/kg, po up to 8 hrs; format: ADME, organism-based, MKN-45; set-up: dose 100 mg/kg, route oral
[32] = target: Macrophage-stimulating protein receptor (Homo sapiens, UniProt Q04912); experiment: Inhibition of short-form RON (unknown origin) expressed in human HeLa cells assessed as phosphorylated RON levels after 4 hrs; format: cell-based
[33] = Metabolic stability in mouse liver microsomes assessed as extraction ratio up to 40 mins by LC-MS/MS analysis; format: ADME, Microsome; conditions: read-out: ERH
Aurora kinase B [34] = target: T2, Aurora kinase B; experiment: Inhibition of aurora-B in human HT-29 cells assessed as phosphorylation of histone H3 at Ser10 in presence of mouse plasma; format: cell-based
[35] = Clearance in CD1 mouse at 2 mg/kg, iv; format: ADME, organism-based; set-up: dose 2 mg/kg, route intravenous; conditions: in vivo
[36] = Antitumor activity against human U87MG cells xenografted in nu/nu CD1 mouse model assessed as maximum tumor regression at 200 mg/kg, po qd for 14 days; format: functional, U-87MG ATCC
[37] = Clearance in Sprague-Dawley rat at 2 mg/kg, iv; format: ADME, organism-based; set-up: dose 2 mg/kg, route intravenous; conditions: in vivo
SNU-5 [38] = experiment: Antitumor activity against human SNU5 cells xenografted in nu/nu CD1 mouse model assessed as tumor growth inhibition at 50 mg/kg, po qd for 20 days; conditions: SNU-5, po, 480 h, read-out: TGI
[39] = Protein binding in mouse plasma by equilibrium dialysis; format: ADME, cell-free; conditions: read-out: PPB (converted)
[40] = Antitumor activity against human U87MG cells xenografted in nu/nu CD1 mouse model assessed as tumor growth inhibition at 100 mg/kg, po bid for 14 days; format: functional, U-87MG ATCC; conditions: U-87 MG, 336 h, read-out: TGI
[41] = Permeability of the compound at pH 7.4 by PAMPA; format: ADME; conditions: read-out: permeability
SNU-5 [42] = experiment: Antitumor activity against human SNU5 cells xenografted in nu/nu CD1 mouse model assessed as tumor growth inhibition at 100 mg/kg, po qd for 20 days; conditions: SNU-5, po, 480 h, read-out: TGI

IC50 [1]: 26 nM
AUC(0-t) [5]: 6200 ng·h/mL
fraction unbound [6]: 0.019
IC50 (Aurora kinase B [7]): 11 nM
IC50 [8]: 6.1 µM
bioavailability [9]: 72%
IC50 [10]: 600 nM
solubility [11]: 11 µM (≈ 5.12 µg/mL)
Cmax [12]: 2500 nM
IC50 [13]: 110 nM
solubility [14]: 1 µM (≈ 0.465 µg/mL)
Vd [15]: 6.8 L/kg
IC50 (MKN-45 [20]): 130 nM
half-life [21]: 174 min
hepatic extraction ratio at 40 min [25]: 0.7
IC50 [27]: 72 nM
IC50 [28]: 1300 nM
concentration at 16 h [29]: 520 nM
concentration at 8 h [31]: > 3000 nM
IC50 [32]: 200 nM
hepatic extraction ratio at 40 min [33]: 0.7
IC50 (Aurora kinase B [34]): > 10 µM
clearance [35]: 51 mL/min/kg
clearance [37]: 39 mL/min/kg
fraction unbound [39]: 0.018
Papp [41]: 359 ×10⁻⁶ cm/s
Compound: C[C@@H](Oc1c(N)ncc2c(C3=CCN(C(N)=O)CC3)coc12)c1c(Cl)ccc(F)c1Cl
inhibition in vivo at 200 mg/kg (SNU-5 [2]): 100%
inhibition in vivo at 100 mg/kg (Mus musculus [3]): > 80%
Activity (SNU-5 [4]): 80%
Activity (Mus musculus [16]): 4%
Activity (Salmonella typhimurium): Non-toxic
Activity (Mus musculus [17]): 4%
inhibition in vivo at 50 mg/kg [18]: 79%
Activity (Mus musculus [19]): 2%
Activity (SNU-5 [22]): 31%
inhibition in vivo at 200 mg/kg [23]: 94%
Activity (Mus musculus [24]): 0%
ED50 (MKN-45 [26]): 50 mg/kg
Activity [30]: 22%
Activity [36]: 8%
inhibition in vivo at 50 mg/kg (SNU-5 [38]): 100%
inhibition in vivo at 100 mg/kg [40]: 97%
inhibition in vivo at 100 mg/kg (SNU-5 [42]): 100%
